We go through three compounds from US7750148B2, “Intermediate compound for the production of β-lactamase-resistant cephalosporin ester compounds and salts thereof” (Zhejiang Yongning Pharmaceutical Factory, priority 2003, dated 2010).

The structures appear in SMILES notation. Where two headings read alike, the source gives them in different places.

The MIC is the smallest concentration in the dilution series that meets the test's criterion for growth inhibition.

One test concerns Proteus mirabilis 49005. Briefly: In vitro antibacterial activity (MIC, agar double dilution). As to conditions: Proteus mirabilis, 49005, 24 h, read-out: MIC of the drug to bacteria. In kind it is cell-based. An excerpt: (§1) tested samples YR-1, YR-2 were the ones prepared in example 1 and example 5 respectively, control samples were cefetamet sodium (CTM), cefuroxime sodium (CRX), cefetamet sodium+sulbactam sodium (CTM+SBT) (molar ratio 1:1), cefuroxime+sulbactam sodium (CRX+SBT) (molar ratio 1:1). All control samples (have been sold on the market) were supplied by Zhejiang Yongning pharmaceutical factory.
(§2) Staphylococcus aureus 26003, Diplococcus lanceolatus 31002, E. coli 44102, Shigella sonnet 51081, Shigella bogdii 51313, Shigella flexneri 51573, Proteus mirabilis 49005, Bacillus proteus 49085, Proteus morganii 49086, Pseudomonas aeruginosa 10124, Bacillus pneumoniae 46101, Salmonella enteritidis 50041, Salmonella typhi 50097, Citrobacter 48017, Candida ciferii 41002 were supplied by Shanghai Hygienic and Antiepidemic Station.
(§3) Mueller-Hinton Agar (M.H) culture medium, batch number 20040528 (Shanghai Reagent Supply Research Center, China Diarrhea Disease Control).
(§4) Adopted agar double dilution, inoculated using multipoint inoculator, inoculated 10^5CFU/ML each point, cultured for 24 hours at 37° C., observed and recorded the results, set the least concentration of the antibacterial drug that can inhibit bacteria growth as the minimum inhibitory concentration (MIC).

Test [1] has as its system Pseudomonas aeruginosa 10124. Described as above. In kind it is cell-based. As to conditions: read-out: MIC of the drug to bacteria.
Source text: as §1, §2, §3, §4

The test system of test [2] is Diplococcus lanceolatus 31002. Described as above. The following applies: read-out: MIC of the drug to bacteria. In kind it is cell-based.
Source text: as §1, §2, §3, §4

The test system of test [3] is Staphylococcus aureus 26003. Described as above. In kind it is cell-based. As to conditions: Staphylococcus aureus, 26003, 24 h, read-out: MIC of the drug to bacteria.
Source text: as §1, §2, §3, §4

A further test relates to Salmonella typhi 50097. Described as above. In kind it is cell-based. As to conditions: Salmonella enterica, 10^5CFU/ML each point, 24 hours at 37° C., read-out: MIC of the drug to bacteria.
Source text: as §1, §2, §3, §4

The next test deals with E. coli 44102. The description is as above. In kind it is cell-based. As to conditions: read-out: MIC of the drug to bacteria.
Source text: as §1, §2, §3, §4

The next test deals with Candida ciferii 41002. The test is described as above. In kind it is cell-based. The following applies: read-out: MIC of the drug to bacteria.
Source text: as §1, §2, §3, §4

For test [4], the system named is Bacillus pneumoniae 46101. The test is described as above. The following applies: read-out: MIC of the drug to bacteria. In kind it is cell-based.
Source text: as §1, §2, §3, §4

The subject of the next test is Bacillus proteus 49085. Described as above. In kind it is cell-based. As to conditions: read-out: MIC of the drug to bacteria.
Source text: as §1, §2, §3, §4

In a further test the test system is Shigella bogdii 51313. Described as above. In kind it is cell-based. The following applies: Shigella, 51313, 24 h, read-out: MIC of the drug to bacteria.
Source text: as §1, §2, §3, §4

The subject of a further test is Shigella flexneri 51573. The description is as above. In kind it is cell-based. The following applies: Shigella flexneri, 51573, 24 h, read-out: MIC of the drug to bacteria.
Source text: as §1, §2, §3, §4

Test [5] concerns Salmonella enteritidis 50041. The description is as above. In kind it is cell-based. As to conditions: Salmonella enterica, read-out: MIC of the drug to bacteria.
Source text: as §1, §2, §3, §4

The test system of another test is Citrobacter 48017. Described as above. In kind it is cell-based. The following applies: Citrobacter, 48017, 24 h, read-out: MIC of the drug to bacteria.
Source text: as §1, §2, §3, §4

For another test, the system named is Shigella sonnet 51081. The description is as above. In kind it is cell-based. The following applies: Shigella, 51081, 24 h, read-out: MIC of the drug to bacteria.
Source text: as §1, §2, §3, §4

Test [6] deals with Bacillus proteus 49085, Proteus morganii 49086. Briefly: Ex vivo antibacterial activity experiment after mouse is administered, conclusions (strains not separated). In kind it is in vivo. As to conditions: mice, intravenous injection 500 mg/kg. The text has this:
the sources of tested samples (YR-1, YR-2) and control samples (CTM, CRX, CTM+SBT 1:1 and CRX+SBT 1:1) are the same as above. Bacillus proteus 49085, Proteus morganii 49086, inoculated 10^5CFU/ML each dish. Mueller-Hinton Agar (M.H) culture medium, batch number 000707 (Shanghai Reagent Supply Research Center, China Diarrhea Disease Control). Strain: Kunming mice; source: Animal Facility of Shanghai Institute of Pharmaceutical Industry; certificate number: Hudonghezhengzi No. 107; animal numbers: 120; Sex: same number of male and female mice; Body weight: 18-21 g; fast time: 16 hours. Group 1: CTM, CRX, CTM+SBT 1:1, CRX+SBT 1:1 were given at a dosage of 500 mg/kg intravenously, collecting blood at 10 minutes, 30 minutes, 1 hour, 2 hours, 4 hours, 8 hours after administration. Group 2: […] Kunming mice were randomly divided into several groups according to body weight of empty stomach and sex. Collecting blood of three mice at different time point, anticoagulated with heparin, centrifugated and separated plasma, quantitative spotting, semi-quantitated antibacterial activity according to the size of bacterial inhibition ring.

In a further test the test system is Bacillus aerogenes 45102. Briefly: In vitro antibacterial activity (MIC, agar double dilution). The following applies: Bacillus, 45102, 24 h, read-out: MIC of the drug to bacteria. In kind it is cell-based.
Source text: as §1
(§5) Staphylococcus epidermidis 26069 and Bacillus aerogenes 45102 were supplied by Beijing Drug & Biology Product Appraisal Bureau.
as §3, §4

In test [7] the test system is Staphylococcus epidermidis 26069. The test is described as above. In kind it is cell-based. As to conditions: read-out: MIC of the drug to bacteria.
Source text: as §1, §5, §3, §4

Test [8] deals with Diplococcus lanceolatus 0031. The test is described as above. In kind it is cell-based. As to conditions: read-out: MIC of the drug to bacteria.
Source text: as §1
Diplococcus lanceolatus 0031 was supplied by Shanghai First People's Hospital.
as §3, §4

The next test deals with Proteus morganii 49086. The test is described as above. In kind it is cell-based.
Source text: as §1, §2, §3, §4

The test system of test [9] is type II, III, IV, V β-lactamase. As to conditions: at a concentration of 2 μg/ml; cited from earlier work.

Turning to `CO/N=C(\C(=O)N[C@@H]1C(=O)N2C(C(=O)O)=C(COC(N)=O)CS[C@H]12)c1ccco1` [CRX, cefuroxime sodium, reference compound], the MIC came out at 1.56 µg/mL in the test on Proteus mirabilis 49005; 100 µg/mL in test [1] (Pseudomonas aeruginosa 10124, 10^5CFU/ML each point, 24 hours at 37° C.); 25 µg/mL in test [2] (Diplococcus lanceolatus 31002, 10^5CFU/ML each point, 24 hours at 37° C.); 1.56 µg/mL in test [3]; 3.13 µg/mL in the test on Salmonella typhi 50097; 6.25 µg/mL in the test with E. coli 44102 (Escherichia coli, E. coli 44102, 10^5CFU/ML each point, 24 hours at 37° C.). Moreover, the MIC stood at 25 µg/mL in the test with Candida ciferii 41002 (Candida ciferii 41002, 10^5CFU/ML each point, 24 hours at 37° C.); 25 µg/mL in test [4] (Klebsiella pneumoniae, Bacillus pneumoniae 46101, 10^5CFU/ML each point, 24 hours at 37° C.); 0.78 µg/mL in the test with Bacillus proteus 49085 (Bacillus proteus 49085, 10^5CFU/ML each point, 24 hours at 37° C.); 1.56 µg/mL in the test on Shigella bogdii 51313; 1.56 µg/mL with Shigella flexneri 51573; 6.25 µg/mL in test [5] (Salmonella enteritidis 50041, 10^5CFU/ML each point, 24 hours at 37° C.). For the same compound, the MIC was 1.56 µg/mL in the test on Citrobacter 48017; 0.78 µg/mL in the test with Shigella sonnet 51081; 3.13 µg/mL in the test with Bacillus aerogenes 45102; 0.39 µg/mL in [7] (Staphylococcus epidermidis 26069, 10^5CFU/ML each point, 24 hours at 37° C.); 0.78 µg/mL in [8] (Diplococcus lanceolatus 0031, 10^5CFU/ML each point, 24 hours at 37° C.); 100 µg/mL with Proteus morganii 49086 (Morganella morganii, Proteus morganii 49086, 10^5CFU/ML each point, 24 hours at 37° C., read-out: MIC of the drug to bacteria). For the same compound, in test [6], the “antibacterial activities in blood 8 hours after administration” value was “can not be detected”.

Turning to `CO/N=C(\C(=O)N[C@@H]1C(=O)N2C(C(=O)O)=C(C)CS[C@H]12)c1csc(N)n1` [CTM, cefetamet sodium, reference compound], the MIC in the test on Proteus mirabilis 49005 was 0.195 µg/mL; in [1] (Pseudomonas aeruginosa, 10124, 24 h) it was 100 µg/mL; in [2] (24 h), more than 100 µg/mL; in test [3], 100 µg/mL; in the test with Salmonella typhi 50097 it was 0.78 µg/mL; in the test with E. coli 44102 (Escherichia coli, 44102, 24 h) it was 0.78 µg/mL. In addition, the minimal inhibitory concentration (MIC) in the test on Candida ciferii 41002 (Candida, 41002, 24 h) amounted to 0.78 µg/mL; in test [4] (Klebsiella pneumoniae, 46101, 24 h) it was 0.78 µg/mL; in the test on Bacillus proteus 49085 (Bacillus, 49085, 24 h), 0.195 µg/mL; with Shigella bogdii 51313, 0.39 µg/mL; in the test on Shigella flexneri 51573 it was 0.78 µg/mL; in test [5] (ENTERITIDIS, 24 h) it was 0.78 µg/mL. For the same compound, the MIC in the test on Citrobacter 48017 is 1.56 µg/mL; in the test on Shigella sonnet 51081 it was 0.39 µg/mL; in the test with Bacillus aerogenes 45102, 0.195 µg/mL; in [7] (Staphylococcus epidermidis, 26069, 24 h), 12.5 µg/mL; in test [8] (24 h), 25 µg/mL; with Proteus morganii 49086 (Morganella morganii, 49086, 24 h, read-out: MIC of the drug to bacteria) it was more than 100 µg/mL. Moreover, the MIC in the test with Proteus morganii 49086 (Morganella morganii, 49086, read-out: MIC (as restated in the conclusions)) is more than 100000 µg/mL. In addition, the “antibacterial activities in blood 8 hours after administration” value in test [6] is given as “can not be detected”.

Turning to `CC1(C)[C@H](C(=O)O)N2C(=O)C[C@H]2S1(=O)=O` [Sulbactam], the “inhibition to β-lactamase” value in [9] was “extremely strong inhibition”.
